The term IC50 denotes the concentration at which inhibition is half-maximal.

One assay has as its target T1, human MAGL (Homo sapiens, UniProt Q99685).
T1 construct: recombinant MAGL enzyme (aa 2-303 RBC, internal preparation)
T1 sequence (Q99685 2-303): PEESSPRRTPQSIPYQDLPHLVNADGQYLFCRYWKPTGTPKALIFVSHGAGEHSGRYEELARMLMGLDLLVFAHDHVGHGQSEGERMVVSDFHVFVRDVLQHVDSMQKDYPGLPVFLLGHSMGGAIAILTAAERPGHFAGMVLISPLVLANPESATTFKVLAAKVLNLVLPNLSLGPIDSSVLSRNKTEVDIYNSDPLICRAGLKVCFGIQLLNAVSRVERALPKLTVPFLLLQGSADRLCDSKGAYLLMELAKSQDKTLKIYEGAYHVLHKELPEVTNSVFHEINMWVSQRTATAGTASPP
The assay can be described thus: MAGL inhibition potency (IC50) with 4NPA substrate, Example 20, methods of Table C. Format: biochemical.
Details: not given
From the text: Cayman's Monoacylglycerol Lipase Inhibitor Screening Assay provides a method for screening human MAGL inhibitors. MAGL hydrolyzes 4-nitrophenylacetate resulting in a yellow product, 4-nitrophenol, with an absorbance of 405-412 nm. The monoacylglycerol lipase inhibitor screening assay kit from Cayman Chemical was used to measure the MAGL potency for the compounds in Table 4 and Table 5. Cayman's Monoacylglycerol Lipase Inhibitor Screening Assay provides a method for screening human MAGL inhibitors. MAGL hydrolyzes 4-nitrophenylacetate resulting in a yellow product, 4-nitrophenol, with an absorbance of 405-412 nm. MAGL Inhibition was measured by the following assay. Monoacylglycerol Lipase (MAGL) inhibition was measured using recombinant MAGL enzyme (aa 2-303 RBC, internal preparation) and the substrate 4-Nitrophenyl acetate (4NPA) (Sigma-Aldrich, N8130). Hydrolysis of the substrate in the presence of the enzyme was measured by absorbance at 405 nm. 10 μL of assay buffer (10 mM Tris pH 7.5, 1 mM EDTA, 0.9% DMSO) was added to a black 384-well non-binding plate with clear bottom (Greiner, 781906) for each reaction. […] DMSO control wells were included for reference. A 10.8 nM (1.8×) MAGL mix in assay buffer was prepared, with 25 μL added to each reaction well, for a final assay concentration of 6 nM. No enzyme wells received 25 μL of buffer. Plate was incubated at room temperature for 30 minutes. 35 mM solution of 4NPA in methanol was prepared daily. A 4.5×4NPA substrate solution was prepared in assay buffer and 10 μL was added to each reaction well, for a final assay concentration of 0.25 mM. Plate was spun for 1 minute at 1000 rpm before measuring absorbance using a CLARIOstar plate reader (BMG Labtech). A kinetic reading at 405 nm was done every minute for 30 minutes. Data was analyzed using the linear slope of the reaction progress curve and the average of the no-enzyme wells (background) was subtracted from the data. The background-subtracted slope data was converted to % activity using the average of wells with enzyme and DMSO vehicle. IC50s were calculated using GraphPad software (Sigmoidal dose response, variable slope equation). […] Table 6 is a table of potency measurements of MAGL inhibition measured for other compounds using the Potency Assay of Example 20 above, with the following modifications described in Table C. [table]
As for `Cc1cc(C2CC3(C2)CN(Cc2cc(O)ccc2F)C3)n(-c2ccccc2C)n1` [Compound 150, 4-fluoro-3-((6-(3-methyl-1-(o-tolyl)-1H-pyrazol-5-yl)-2-azaspiro [3.3]heptan-2-yl)methyl)phenol], the 50% inhibitory concentration (IC50) is > 10 µM.

The same assay, now with this note: Method 2: MAGL (10 nM) Cayman Chemical Enzyme.
Consider `COC(c1ccn(C)c1)N1CC2(CC(c3cc(C)nn3-c3ccccc3C)C2)C1` (stereo not drawn) [Compound 182], for which the IC50 was > 10 µM.
For the molecule `COC(c1cccn1C)N1CC2(CC(c3cc(C)nn3-c3ccccc3C)C2)C1` (stereo not drawn) [Compound 181], the IC50 was > 10 µM.
Still for that read-out and setting: as for `COc1cc(F)ccc1CN1CC2(CC(c3cc(C)nn3-c3ccccc3C)C2)C1` [Compound 149], the figure is > 10 µM.

The assay is the same for the next values; noted with them: Method 4: MAGL (15 nM) Cayman Chemical Enzyme.
For `CCOc1cc(F)ccc1C(=O)N1CC2(CC(C(=O)N(C)c3cccnc3C)C2)C1` [Compound 198], the 50% inhibitory concentration (IC50) was > 10 µM.

The assay is the same for the next values; noted with them: Method 6: Enzyme Conc 6, Reaction Biology (6 nM).
Consider `Cc1ccccc1-c1cc(C)n(C2CC3(C2)CN(C(=O)c2cc(O)ccc2F)C3)n1` [Compound 442], for which the IC50 was > 10 µM.
The same measure, in the same setting: the figure for `Cc1ccccc1-c1ccnn1C1CC2(C1)CN(C(=O)c1cc(O)ccc1F)C2` [Compound 405] is > 10 µM.
On to `Cc1ccccc1-c1ccn(C2CC3(C2)CN(C(=O)c2cc(O)ccc2F)C3)n1` [Compound 441], for which the concentration for half-maximal inhibition (IC50) was > 10 µM.
Turning to `Cc1cnn(C2CC3(C2)CN(C(=O)c2cc(O)ccc2F)C3)c1-c1ccccc1Cl` [Compound 404], the half-maximal inhibitory concentration (IC50) was > 10 µM.
Same read-out and setting: the figure for `Cc1cn(C2CC3(C2)CN(C(=O)c2cc(O)ccc2F)C3)nc1-c1ccccc1Cl` [Compound 416] is > 10 µM; for `Cc1cc(-c2ccccc2C)n(C2CC3(C2)CN(C(=O)c2cc(O)ccc2F)C3)n1` [Compound 406] it is > 10 µM.

Still in this assay, the particulars now being: Method 12: Enzyme Conc 15, Reaction Biology (15 nM).
Take `Cc1cnn(C2CC3(C2)CN(C(=O)c2cc(O)ccc2C(F)(F)F)C3)c1-c1ccccc1F` [Compound 494]: the IC50 is > 10 µM.
Same read-out and setting: the figure for `O=C(c1c(F)cccc1OC1CC1)N1CC2(CC(n3ncc(C(F)(F)F)c3-c3ccccc3F)C2)C1` [Compound 521] is > 10 µM; for `Cc1cn(C2CC3(C2)CN(C(=O)c2cc(O)ccc2C(F)(F)F)C3)nc1-c1ccccc1F` [Compound 495] it is > 10 µM.

Still in this assay, the particulars now being: Method 14: Enzyme Conc "0", Source "0"; Reaction Biology prep, 6 nM.
For the molecule `Cc1cc(C2CC3(C2)CN(C(=O)c2ccc4c(c2)OCC4)C3)n(-c2ccccc2C)n1` [Compound 402], the 50% inhibitory concentration (IC50) is > 10 µM.
For the molecule `Cc1cc(C2CC3(C2)CN(C(=O)c2cc4c(cc2F)CCO4)C3)n(-c2ccccc2C)n1` [Compound 368], the IC50 is > 10 µM.
Same read-out and setting: as for `O=C(c1cc(O)ccc1F)N1CC2(CC(C(=O)N3CCOCC3)C2)C1` [Compound 384], the figure is > 10 µM; as for `O=C(NCC1COC1)C1CC2(C1)CN(C(=O)c1cc(O)ccc1F)C2` [Compound 395], > 10 µM.
Still for that read-out and setting: as for `O=C(c1cc(O)ccc1F)N1CC2(CC(C(=O)N3CCCC3)C2)C1` [Compound 388], the figure is > 10 µM; as for `O=C(c1cc(O)ccc1F)N1CC2(CC(C(=O)N3CCC4(COC4)C3)C2)C1` [Compound 391], > 10 µM; as for `Cc1cc(C2CC3(C2)CN(C(=O)c2cccc4c2CCO4)C3)n(-c2ccccc2C)n1` [Compound 403], > 10 µM.

A further assay has as its target T2, human recombinant FAAH (Homo sapiens, UniProt O00519).
T2 construct: purchased Cayman kit Item No. 10005196; FAAH enzyme 700302
T2 sequence (O00519 1-579): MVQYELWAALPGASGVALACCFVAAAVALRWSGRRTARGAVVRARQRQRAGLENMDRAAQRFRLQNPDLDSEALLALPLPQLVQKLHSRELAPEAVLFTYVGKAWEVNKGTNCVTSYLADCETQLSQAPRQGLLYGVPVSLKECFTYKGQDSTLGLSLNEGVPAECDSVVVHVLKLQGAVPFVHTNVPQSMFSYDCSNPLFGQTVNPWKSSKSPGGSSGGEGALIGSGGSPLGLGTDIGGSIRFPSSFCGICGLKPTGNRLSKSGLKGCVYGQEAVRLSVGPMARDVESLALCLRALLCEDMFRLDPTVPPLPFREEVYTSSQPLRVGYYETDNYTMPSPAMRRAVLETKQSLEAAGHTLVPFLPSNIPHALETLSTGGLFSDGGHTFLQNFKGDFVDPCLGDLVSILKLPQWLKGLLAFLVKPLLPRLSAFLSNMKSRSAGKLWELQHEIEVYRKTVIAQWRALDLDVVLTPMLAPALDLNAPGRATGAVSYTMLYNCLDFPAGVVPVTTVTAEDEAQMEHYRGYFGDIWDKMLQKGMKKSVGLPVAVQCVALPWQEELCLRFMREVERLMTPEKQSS
The assay can be described thus: FAAH counter screen (Cayman FAAH Inhibitor Screening Assay Kit), Example 21. It counts as biochemical. Particulars: Method A: starting concentration of 100 μM. The protocol: Comparative compound potency at FAAH can be obtained with the following assay.
MAGL inhibitor compounds were also counter-screened for FAAH inhibition potency using the following assay. Assessment of FAAH inhibition was performed using Fatty Acid Amide Hydrolase Inhibitor Screening Assay Kit (Cayman Item No. 10005196) following manufacture's instruction with some modifications. The kit utilizes human recombinant FAAH and the fluorescent substrate, AMC Arachidonoyl amide (AAMCA). 5 μL of assay buffer (125 mM Tris, pH 9.0, 1 mM EDTA, i.e. ethylenediaminetetraacetic acid) was added to a 384-well black plate (Corning, 3573). Test compounds and control inhibitor JZL-195 (Cayman Chemical, 13668) were tested in 10-concentration IC50 mode with 3-fold serial dilution at a starting concentration of 100 μM and 10 μM, respectively. 300 nL or 30 nL of test compounds were delivered into a 384-well black plate (Corning, 3573) using a Labcyte Echo, followed by addition of 15 μL of FAAH enzyme (Cayman, 700302) in assay buffer. After a 5-minute pre-incubation at room temperature, 10 μL of AAMCA was added in assay buffer to start the reaction. Final concentration of FAAH enzyme is not specified and AAMCA substrate was used at the 20 uM. After these dilutions, the final concentration of the test compounds ranged from 100 μM to 5.08 nM or 10 μM down to 0.508 nM. The reaction was allowed to progress for 60 minutes, while the plate was read on an Envision plate reader at an Ex/Em of 350/460 nm with readings every minute. The data was analyzed in Microsoft Excel, using the slope between 30 and 59 minutes. The average of the no-enzyme wells (background) was subtracted from the data. The background-subtracted slope data was converted to % activity using the average of wells with enzyme and DMSO vehicle. IC50 values were calculated using GraphPad software (Sigmoidal dose response, variable slope equation).
Compounds listed in Table D2 were tested in the FAAH Counterscreen of Example 21
As for `Cc1cc(C2CC3(C2)CN(C(=O)c2ccccc2F)C3)n(-c2ccccc2C)n1` [Compound 122, (2-fluorophenyl)(6-(3-methyl-1-(o-tolyl)-1H-pyrazol-5-yl)-2-azaspiro[3.3]heptan-2-yl)methanone], the half-maximal inhibitory concentration (IC50) was > 10 µM.
On the same count and under the same terms, the figure for `O=C(Nc1cccnc1)N1CCC(Cc2cccc(Oc3ccc(C(F)(F)F)cn3)c2)CC1` [reference compound] is 0.014 µM; for `Cc1cc(C2CC3(C2)CN(C(=O)c2cccc(O)c2)C3)n(-c2ccccc2C)n1` [Compound 125, (3-hydroxyphenyl)(6-(3-methyl-1-(o-tolyl)-1H-pyrazol-5-y1)-2-azaspiro[3.3]heptan-2-yl)methanone] it is > 10 µM.
As for `Cc1cc(C2CC3(C2)CN(C(=O)c2c(F)ccc(O)c2F)C3)n(-c2ccccc2C)n1` [Compound 127, (2,6-difluoro-3-hydroxyphenyl)(6-(3-methyl-1-(o-tolyl)-1H-pyrazol-5-yl)-2-azaspiro[3.3]heptan-2-yl)methanone], the IC50 is > 10 µM.

The next assay deals with T3, MAGL enzyme (Homo sapiens, UniProt Q99685).
T3 sequence (Q99685 1-303): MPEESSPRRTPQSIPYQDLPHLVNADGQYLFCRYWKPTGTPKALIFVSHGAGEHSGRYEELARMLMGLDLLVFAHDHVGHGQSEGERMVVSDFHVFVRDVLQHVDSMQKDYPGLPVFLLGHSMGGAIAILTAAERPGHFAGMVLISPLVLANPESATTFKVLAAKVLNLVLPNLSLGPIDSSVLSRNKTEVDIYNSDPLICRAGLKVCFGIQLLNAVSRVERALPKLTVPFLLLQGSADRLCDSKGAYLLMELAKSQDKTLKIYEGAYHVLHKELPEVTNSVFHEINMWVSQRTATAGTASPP
As to the kind of experiment: MAGL reversible inhibition assay (washout), Example 22. It counts as biochemical. Set-up: % MAGL activity returning after washout: concentration or dose not given beside the values. Particulars: pre-washout compound concentration 1 μM. On the procedure: The reversible mechanism of MAGL inhibition of a test compound of Formula (I) can be determined. Flag-tagged MAGL enzyme will be immobilized on anti-Flag beads. Immobilized enzyme will be incubated+/−inhibitor at a dose that produces complete inhibition. Colorimetric substrate (4-NPA) will be added and the reaction monitored on a plate reader for 30 minutes to verify complete inhibition. Immobilized enzyme will then be washed thoroughly to remove the inhibitor, and fresh substrate will be added. The reaction will be monitored for an additional 30 minutes; returning enzymatic activity will indicate reversibility of inhibition. […]
For some test compounds, % activity returning after washout may be less than 100%/if complete compound unbinding takes longer than 30 minutes.
As for `Cc1cnn(C2CC3(C2)CN(C(=O)c2cc(O)ccc2F)C3)c1-c1cc(F)ccc1Cl` (single isomer, unassigned) [Compound 519, {6-[5-(2-chloro-5-fluorophenyl)-4-methyl-1-pyrazolyl]-2-aza-2-spiro[3.3]heptyl}(2-fluoro-5-hydroxyphenyl)methanone], the “degree to which MAGL enzymatic activity returned following washout of test compounds” value is reported as 155.

Still in this assay, the particulars now being: relative to control (no inhibitor before washout), immediately following 30 minute washout.
Take `Cc1cnn(C2CC3(C2)CN(C(=O)c2cc(O)ccc2F)C3)c1-c1cc(F)ccc1Cl` (single isomer, unassigned) [Compound 519, {6-[5-(2-chloro-5-fluorophenyl)-4-methyl-1-pyrazolyl]-2-aza-2-spiro[3.3]heptyl}(2-fluoro-5-hydroxyphenyl)methanone]: the “% MAGL activity returning after washout” value was >50%.

The record behind these values is patent US20250170101A1, “MONOACYLGLYCEROL LIPASE INHIBITORS AND USE THEREOF FOR THE TREATMENT AND MANAGEMENT OF PAIN AND RELATED CONDITIONS” (Psy Therapeutics, Inc., priority 2021, published 2025).
